For 34 molecules, IC50 results are on record in patent US11427558B1, “Indazoles and azaindazoles as LRRK2 inhibitors” (ESCAPE Bio, Inc., priority 2019, dated 2022).

Assay [1] addresses Recombinant wild type LRRK2 protein (Homo sapiens (Human), UniProt Q5S007). The assay is described as follows: LRRK2 kinase activity, LanthaScreen TR-FRET assay (wild type). The settings on record: LRRKtide 400 nM, 25 μM ATP, 60 min; read-out: LRRK2 WT IC50. It counts as biochemical. The method in brief:
(§1)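 Recombinant human wild-type or G2019S LRRK2 phosphorylated fluorescein-labelled LRRKtide (ERM-based) with ATP and serially diluted compound for 60 min at room temperature.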
(TR-FRET usually uses a lanthanide donor and a delayed reading to cut background.)

In assay [2] the target is Recombinant G2019S-LRRK2 protein (Homo sapiens (Human), UniProt Q5S007, G2019S). In words: LRRK2 kinase activity, LanthaScreen TR-FRET assay (G2019S). It counts as biochemical. The settings on record: LRRKtide 400 nM, 25 μM ATP, 60 min. In outline:
as §1

pIC50: −log10 of the molar value. A value given as a limit tells only on which side of the number the result lay.

Recombinant wild type LRRK2 protein, sequence (Q5S007 whole entry): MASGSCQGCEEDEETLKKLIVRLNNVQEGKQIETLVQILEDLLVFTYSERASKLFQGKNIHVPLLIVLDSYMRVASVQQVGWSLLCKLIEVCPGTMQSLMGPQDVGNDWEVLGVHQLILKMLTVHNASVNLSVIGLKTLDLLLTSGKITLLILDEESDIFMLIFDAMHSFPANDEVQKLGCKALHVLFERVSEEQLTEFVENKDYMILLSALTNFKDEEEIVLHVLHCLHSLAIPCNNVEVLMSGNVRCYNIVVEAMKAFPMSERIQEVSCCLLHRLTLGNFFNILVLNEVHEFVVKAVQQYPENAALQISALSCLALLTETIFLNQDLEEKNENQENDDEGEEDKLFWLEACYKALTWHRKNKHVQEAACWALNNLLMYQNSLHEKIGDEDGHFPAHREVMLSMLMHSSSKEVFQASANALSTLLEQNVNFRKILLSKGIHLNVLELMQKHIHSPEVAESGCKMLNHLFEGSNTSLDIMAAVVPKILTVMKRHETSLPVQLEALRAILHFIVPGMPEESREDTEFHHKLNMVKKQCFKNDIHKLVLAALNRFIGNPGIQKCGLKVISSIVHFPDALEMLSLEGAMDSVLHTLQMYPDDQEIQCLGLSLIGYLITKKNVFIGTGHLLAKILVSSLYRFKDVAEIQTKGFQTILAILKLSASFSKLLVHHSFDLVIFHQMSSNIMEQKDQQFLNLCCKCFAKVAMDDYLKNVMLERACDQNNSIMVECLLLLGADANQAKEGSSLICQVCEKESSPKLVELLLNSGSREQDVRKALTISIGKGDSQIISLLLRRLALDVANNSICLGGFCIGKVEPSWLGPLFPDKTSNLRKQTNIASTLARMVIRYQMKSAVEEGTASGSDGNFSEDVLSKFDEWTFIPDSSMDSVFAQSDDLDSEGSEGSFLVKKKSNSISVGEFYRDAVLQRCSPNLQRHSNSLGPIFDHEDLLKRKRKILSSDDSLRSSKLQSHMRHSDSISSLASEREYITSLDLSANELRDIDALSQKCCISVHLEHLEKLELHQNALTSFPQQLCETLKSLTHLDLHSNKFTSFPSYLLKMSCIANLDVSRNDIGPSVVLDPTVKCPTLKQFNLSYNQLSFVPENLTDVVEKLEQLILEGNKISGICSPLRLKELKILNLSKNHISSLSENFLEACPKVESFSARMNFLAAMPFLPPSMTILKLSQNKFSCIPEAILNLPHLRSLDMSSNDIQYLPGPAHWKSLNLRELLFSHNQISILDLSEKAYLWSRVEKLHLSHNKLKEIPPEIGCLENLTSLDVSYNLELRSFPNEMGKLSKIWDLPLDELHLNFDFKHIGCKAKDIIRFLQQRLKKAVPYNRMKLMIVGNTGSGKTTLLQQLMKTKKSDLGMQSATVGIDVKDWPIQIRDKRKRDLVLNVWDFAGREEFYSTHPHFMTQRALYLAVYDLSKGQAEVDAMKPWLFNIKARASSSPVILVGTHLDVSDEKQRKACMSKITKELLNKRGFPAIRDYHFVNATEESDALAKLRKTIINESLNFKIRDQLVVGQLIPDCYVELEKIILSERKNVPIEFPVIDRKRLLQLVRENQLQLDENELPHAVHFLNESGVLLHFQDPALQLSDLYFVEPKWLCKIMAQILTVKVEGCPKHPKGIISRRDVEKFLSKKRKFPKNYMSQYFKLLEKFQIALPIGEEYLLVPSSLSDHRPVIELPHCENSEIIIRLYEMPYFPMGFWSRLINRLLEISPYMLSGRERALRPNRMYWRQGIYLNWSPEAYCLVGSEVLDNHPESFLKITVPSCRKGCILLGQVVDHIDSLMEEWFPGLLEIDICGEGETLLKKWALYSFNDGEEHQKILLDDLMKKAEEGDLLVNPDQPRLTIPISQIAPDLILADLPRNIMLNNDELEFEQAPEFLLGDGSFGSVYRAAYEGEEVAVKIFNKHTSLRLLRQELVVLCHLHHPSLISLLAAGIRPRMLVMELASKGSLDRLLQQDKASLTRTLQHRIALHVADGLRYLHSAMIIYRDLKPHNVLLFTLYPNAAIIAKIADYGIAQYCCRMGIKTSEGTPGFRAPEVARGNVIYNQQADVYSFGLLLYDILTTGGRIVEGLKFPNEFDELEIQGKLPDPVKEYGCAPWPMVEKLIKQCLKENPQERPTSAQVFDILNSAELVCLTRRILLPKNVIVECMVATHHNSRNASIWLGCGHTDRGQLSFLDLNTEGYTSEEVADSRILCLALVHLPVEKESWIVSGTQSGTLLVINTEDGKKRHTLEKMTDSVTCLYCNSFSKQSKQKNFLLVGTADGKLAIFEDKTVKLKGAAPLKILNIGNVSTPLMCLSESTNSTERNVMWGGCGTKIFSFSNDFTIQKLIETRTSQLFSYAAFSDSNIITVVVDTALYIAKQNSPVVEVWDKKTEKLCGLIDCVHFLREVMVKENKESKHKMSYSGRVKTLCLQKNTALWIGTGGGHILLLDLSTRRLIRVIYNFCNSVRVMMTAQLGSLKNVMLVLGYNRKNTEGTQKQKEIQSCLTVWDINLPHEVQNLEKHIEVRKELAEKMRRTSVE
Recombinant G2019S-LRRK2 protein, sequence (Q5S007 whole entry G2019S): as the sequence (Q5S007 whole entry) above, with G2019S counted along it

Consider `Cc1cc(-c2n[nH]c3ccc(NC(=O)c4ncc(C#N)c(C)c4C)cc23)on1` [Example 229, 5-Cyano-3,4-dimethyl-N-(3-(3-methylisoxazol-5-yl)-1H-indazol-5-yl)picolinamide], for which the pIC50 in assay [1] and in assay [2] was greater than 7.00 throughout.
As for `Cc1c(C#N)cnc(C(=O)Nc2ccc3[nH]nc(-c4ccncn4)c3c2)c1C` [Example 230, 5-Cyano-3,4-dimethyl-N-(3-(pyrimidin-4-yl)-1H-indazol-5-yl)picolinamide], the figures for the pIC50 in assay [1] and in assay [2] were 6.00 to 7.00 and greater than 7.00, respectively.
For `CCc1c(C#N)ccc(F)c1C(=O)Nc1ccc2[nH]nc(-c3cnco3)c2c1` [Example 231, 3-Cyano-2-ethyl-6-fluoro-N-(3-(oxazol-5-yl)-1H-indazol-5-yl)benzamide], in that order: greater than 7.00 and greater than 7.00.
For `CCc1c(C(=O)Nc2ccc3[nH]nc(-c4cnco4)c3c2)ccnc1C#N` [Example 232, 2-Cyano-3-ethyl-N-(3-(oxazol-5-yl)-1H-indazol-5-yl)isonicotinamide], in that order: greater than 7.00 and greater than 7.00.
For `Cc1c(C#N)cnc(C(=O)Nc2ccc3[nH]nc(/C=C/C4CC4)c3c2)c1C` [Example 233, (E)-5-Cyano-N-(3-(2-cyclopropylvinyl)-1H-indazol-5-yl)-3,4-dimethylpicolinamide], in that order: greater than 7.00 and greater than 7.00.
As to `COc1c(C#N)ccc(C)c1C(=O)Nc1ccc2[nH]nc(-c3cnco3)c2c1` [Example 234, 3-Cyano-2-methoxy-6-methyl-N-(3-(oxazol-5-yl)-1H-indazol-5-yl)benzamide], the pIC50 in assay [1] and in assay [2] was greater than 7.00 in each case.
Consider `Cc1cc(-c2n[nH]c3ccc(NC(=O)c4ncc(C#N)cc4C)cc23)on1` [Example 235, 5-Cyano-3-methyl-N-(3-(3-methylisoxazol-5-yl)-1H-indazol-5-yl)picolinamide], for which the pIC50 in assay [1] and in assay [2] was greater than 7.00 in each case.
On to `Cc1ccc(C#N)c(F)c1C(=O)Nc1ccc2[nH]nc(-c3cnoc3)c2c1` [Example 236, 3-Cyano-2-fluoro-N-(3-(isoxazol-4-yl)-1H-indazol-5-yl)-6-methylbenzamide], for which the negative logarithm of the IC50 (pIC50) in assay [1] and in assay [2] was greater than 7.00 in each case.
Turning to `Cc1nccc(-c2n[nH]c3ccc(NC(=O)c4ncc(C#N)c(C)c4C)cc23)n1` [Example 237, 5-Cyano-3,4-dimethyl-N-(3-(2-methylpyrimidin-4-yl)-1H-indazol-5-yl)picolinamide], the pIC50 in assay [1] and in assay [2] was greater than 7.00 each time.
Consider `Cc1c(C#N)cnc(C(=O)Nc2cc3c(-c4cnco4)n[nH]c3cn2)c1C` [Example 238, 5-Cyano-3,4-dimethyl-N-(3-(oxazol-5-yl)-1H-pyrazolo[3,4-c]pyridin-5-yl)picolinamide], for which the figures for the pIC50 in assay [1] and in assay [2] were 6.00 to 7.00 and greater than 7.00, respectively.
For `Cc1c(C#N)nn(C)c1C(=O)Nc1ccc2[nH]nc(-c3cnco3)c2c1` [Example 239, 3-Cyano-1,4-dimethyl-N-(3-(oxazol-5-yl)-1H-indazol-5-yl)-1H-pyrazole-5-carboxamide], in that order: greater than 7.00 and 6.00 to 7.00.
`Cc1c(C#N)cnc(C(=O)Nc2ccc3[nH]nc(-c4cn(C)nn4)c3c2)c1C` [Example 240, 5-Cyano-3,4-dimethyl-N-(3-(1-methyl-1H-1,2,3-triazol-4-yl)-1H-indazol-5-yl)picolinamide]: the negative logarithm of the IC50 (pIC50) is 6.00 to 7.00 in assay [1] and greater than 7.00 in assay [2].
The corresponding values for `Cc1cc(C#N)cnc1C(=O)Nc1ccc2[nH]nc(-c3cn(C)nn3)c2c1` [Example 241, 5-Cyano-3-methyl-N-(3-(1-methyl-1H-1,2,3-triazol-4-yl)-1H-indazol-5-yl)picolinamide] are 6.00 to 7.00 and 6.00 to 7.00.
For `Cc1cc(C#N)cnc1C(=O)Nc1ccc2[nH]nc(-n3ccoc3=O)c2c1` [Example 242, 5-Cyano-3-methyl-N-(3-(2-oxooxazol-3(2H)-yl)-1H-indazol-5-yl)picolinamide], the pIC50 in assay [1] was 5.00 to 6.00; in assay [2], greater than 7.00.
The corresponding values for `CC(C)=Cc1n[nH]c2ccc(NC(=O)c3ncc(C#N)c(C)c3C)cc12` [Example 243, 5-Cyano-3,4-dimethyl-N-(3-(2-methylprop-1-en-1-yl)-1H-indazol-5-yl)picolinamide] are 6.00 to 7.00 and greater than 7.00.
Consider `Cc1c(C#N)cnc(C(=O)Nc2ccc3[nH]nc(/C=C/c4ccccc4)c3c2)c1C` [Example 244, (E)-5-Cyano-3,4-dimethyl-N-(3-styryl-1H-indazol-5-yl)picolinamide], for which the pIC50 in assay [1] and in assay [2] was greater than 7.00 in each case.
For the molecule `C/C=C/c1n[nH]c2ccc(NC(=O)c3ncc(C#N)c(C)c3C)cc12` [Example 245, (E)-5-cyano-3,4-dimethyl-N-(3-(prop-1-en-1-yl)-1H-indazol-5-yl)picolinamide], the pIC50 was 6.00 to 7.00 in assay [1] and greater than 7.00 in assay [2].
For `Cc1c(C#N)cn(C)c1C(=O)Nc1ccc2[nH]nc(-c3cnoc3)c2c1` [Example 246, 4-Cyano-N-(3-(isoxazol-4-yl)-1H-indazol-5-yl)-1,3-dimethyl-1H-pyrrole-2-carboxamide], in that order: greater than 7.00 and greater than 7.00.
Regarding `Cn1cc(C#N)cc1C(=O)Nc1ccc2[nH]nc(-c3cnoc3)c2c1` [Example 247, 4-Cyano-N-(3-(isoxazol-4-yl)-1H-indazol-5-yl)-1-methyl-1H-pyrrole-2-carboxamide], the negative logarithm of the IC50 (pIC50) in assay [1] and in assay [2] was greater than 7.00 throughout.
With `Cc1c(C#N)cnc(C(=O)Nc2ccc3[nH]nc(/C=C/c4ccccn4)c3c2)c1C` [Example 248, (E)-5-Cyano-3,4-dimethyl-N-(3-(2-(pyridin-2-yl)vinyl)-1H-indazol-5-yl)picolinamide], the pIC50 in assay [1] and in assay [2] was greater than 7.00 each time.
Turning to `COc1cc(C(=O)Nc2ccc3[nH]nc(-c4cnco4)c3c2)ncc1C#N` [Example 249, 5-Cyano-4-methoxy-N-(3-(oxazol-5-yl)-1H-indazol-5-yl)picolinamide], the pIC50 was 6.00 to 7.00 in assay [1] and greater than 7.00 in assay [2].
For `C=C(C)c1cc(C#N)cnc1C(=O)Nc1ccc2[nH]nc(-c3cnco3)c2c1` [Example 250, 5-Cyano-N-(3-(oxazol-5-yl)-1H-indazol-5-yl)-3-(prop-1-en-2-yl)picolinamide], in that order: greater than 7.00 and greater than 7.00.
For `CC(C)c1cc(C#N)cnc1C(=O)Nc1ccc2[nH]nc(-c3cnco3)c2c1` [Example 251, 5-Cyano-3-isopropyl-N-(3-(oxazol-5-yl)-1H-indazol-5-yl)picolinamide], in that order: 6.00 to 7.00 and greater than 7.00.
For `Cc1c(C#N)cnc(C(=O)Nc2ccc3[nH]nc([C@@H]4CC4c4ccccc4)c3c2)c1C` (stereo partly drawn) [Example 252, 5-Cyano-3,4-dimethyl-N-(3-((1R)-2-phenylcyclopropyl)-1H-indazol-5-yl)picolinamide], in that order: 6.00 to 7.00 and greater than 7.00.
Take `Cc1cc(C#N)cnc1C(=O)Nc1ccc2[nH]nc(N3CCC3)c2c1` [Example 253, N-(3-(Azetidin-1-yl)-1H-indazol-5-yl)-5-cyano-3-methylpicolinamide]: the pIC50 in assay [1] was 5.00 to 6.00; in assay [2], 6.00 to 7.00.
`Cc1cc(C#N)cnc1C(=O)Nc1ccc2[nH]nc(N3CC(F)(F)C3)c2c1` [Example 254, 5-Cyano-N-(3-(3,3-difluoroazetidin-1-yl)-1H-indazol-5-yl)-3-methylpicolinamide]: the pIC50 was 5.00 to 6.00 in assay [1] and 6.00 to 7.00 in assay [2].
The corresponding values for `Cc1cc(C#N)cnc1C(=O)Nc1ccc2[nH]nc(OCc3ccccc3)c2c1` [Example 255, N-(3-(Benzyloxy)-1H-indazol-5-yl)-5-cyano-3-methylpicolinamide] are 6.00 to 7.00 and greater than 7.00.
The corresponding values for `Cc1cc(C#N)cnc1C(=O)Nc1ccc2[nH]nc(C3COC3)c2c1` [Example 256, 5-Cyano-3-methyl-N-(3-(oxetan-3-yl)-1H-indazol-5-yl)picolinamide] are 5.00 to 6.00 and 5.00 to 6.00.
The corresponding values for `Cc1c(C#N)cnc(C(=O)Nc2ccc3[nH]nc(C4CC4(C)C)c3c2)c1C` (centres unmarked) [Example 257, 5-Cyano-N-(3-(2,2-dimethylcyclopropyl)-1H-indazol-5-yl)-3,4-dimethylpicolinamide] are 5.00 to 6.00 and 5.00 to 6.00.
With `COc1cc(C(=O)Nc2ccc3[nH]nc(-c4cnco4)c3c2)nc(C)c1C#N` [Example 258, 5-Cyano-4-methoxy-6-methyl-N-(3-(oxazol-5-yl)-1H-indazol-5-yl)picolinamide], the pIC50 in assay [1] was 5.00 to 6.00; in assay [2], greater than 7.00.
For `Cc1c(C#N)cnc(C(=O)Nc2ccc3[nH]nc(C=C4CCN(C(=O)OC(C)(C)C)CC4)c3c2)c1C` [Example 259, tert-butyl 4-((5-(5-Cyano-3,4-dimethylpicolinamido)-1H-indazol-3-yl)methylene)piperidine-1-carboxylate], the pIC50 in assay [1] and in assay [2] was less than 5.00 each time.
Turning to `Cc1c(C#N)cnc(C(=O)Nc2ccc3[nH]nc(C=C4CCNCC4)c3c2)c1C` [Example 260, 5-Cyano-3,4-dimethyl-N-(3-(piperidin-4-ylidenemethyl)-1H-indazol-5-yl)picolinamide], the figures for the pIC50 in assay [1] and in assay [2] were less than 5.00 and 5.00 to 6.00, respectively.
For `Cc1c(C#N)cnc(C(=O)Nc2ccc3[nH]nc(/C=C4/CCOC4)c3c2)c1C` [Example 261, (Z)-5-Cyano-N-(3-((dihydrofuran-3(2H)-ylidene)methyl)-1H-indazol-5-yl)-3,4-dimethylpicolinamide], in that order: 5.00 to 6.00 and greater than 7.00.
Turning to `Cc1c(C#N)cnc(C(=O)Nc2ccc3[nH]nc(C=C4CCOCC4)c3c2)c1C` [Example 262, 5-Cyano-3,4-dimethyl-N-(3-((tetrahydro-4H-pyran-4-ylidene)methyl)-1H-indazol-5-yl)picolinamide], the pIC50 in assay [1] and in assay [2] was 5.00 to 6.00 in each case.

What is called pIC50 is −log10 of the IC50, conventionally taken in molar units.
